Reference: ChEMBL document CHEMBL1121592, “Mutagenicity of substituted (o-phenylenediamine)platinum dichloride in the Ames test. A quantitative structure-activity analysis” (J Med Chem, 1980)

System: Salmonella typhimurium
Experiment: Compound was tested in Ames test using Salmonella Typhimurium (TA-92). C is the molar concentration of compound producing 30 mutations/(10e 8) bacteria delivered
Format: functional, organism-based
Conditions: Salmonella enterica subsp. enterica serovar Typhimurium

Substance	Log 1/C
Phenylene-1,3-diamine-platinum 2,2-dichloride-4,5-dimethoxy	4.64
0-Phenylene-1,3-diamine-platinum 2,2-dichloride-4-benzoyl	7.52
0-Phenylene-1,3-diamine-platinum 2,2-dichloride-4-ethoxy	5.6
0-Hexyl-1,3-diamine-platinum 2,2-dichloride	4.22
0-Phenylene-1,3-diamine-platinum 2,2-dichloride-4-nitro	8.65
4,5-benzoPhenylene-1,3-diamine-platinum 2,2-dichloride-	5.92
0-Phenylene-1,3-diamine-platinum 2,2-dichloride-4-methyl	5.6
0-Phenylene-1,3-diamine-platinum 2,2-dichloride-3,4,5-trichloro	7.73
0-Phenylene-1,3-diamine-platinum 2,2-dichloride-4,5-dichloro	6.89
0-Phenylene-1,3-diamine-platinum 2,2-dichloride-4-carboxylic acid methyl ester	7
CISPLATIN	4.52
0-Phenylene-1,3-diamine-platinum 2,2-dichloride-4-methoxy	5.65
